{
  "source": "patent US20250194593A1",
  "about": "“PESTICIDAL COMPOSITIONS COMPRISING PENTANAL AND USES THEREOF” (MIGAL GALILEE RESEARCH INSTITUTE LTD., priority 2022, published 2025)",
  "key": {"[1]": {"assay": "pentanal release rate into the ambient air from compositions", "format": "physicochemical", "conditions": "release of 50% of the initial pentanal amount into the ambient air", "from_the_text": "The inventors further calculated pentanal release rate into the ambient air from various compositions of the invention and compared the release rate to neat pentanal (liquid), as a negative control. Table 1 presents the time period required for release of 50% of the initial pentanal amount."}, "Alternaria alternata": {"system": "Alternaria alternata", "assay": "Petri dish with PDA inoculated with fungi spores exposed to pentanal vapors", "format": "cell-based", "conditions": "pentanal vapors about 18 ppm; vs untreated plates", "from_the_text": "(§1) FIGS. 1A-1C are images representing inhibition of various plant pathogens Alternaria alternata (1A), Botrytis cinerea (1B), and Penicillium expansum (1C) by pentanal vapors at a concentration of 18 ppm. The inventors tested anti-fungal efficiency of pentanal vapors by exposing various fruits pathogens (e.g., Alternaria, Botrytis, and Penicillium species) to pentanal vapors at a concentration of about 18 ppm. Fruit (in vivo) or Petri dish with PDA (in vitro) inoculated with fungi spores (10^3-10^6 spores/ml) were exposed to pentanal vapors at concentrations of 10-100 ppm for 24 hr. after which the samples were aired and incubated until the pathogens developed in the untreated samples which served as control. The results of this experiment are represented in FIG. 1."}, "Botrytis cinerea [2]": {"system": "Botrytis cinerea", "assay": "Petri dish with PDA inoculated with fungi spores exposed to pentanal vapors", "format": "cell-based", "conditions": "pentanal vapors about 18 ppm; vs untreated plates", "from_the_text": "as §1"}, "Penicillium expansum [3]": {"system": "Penicillium expansum", "assay": "Petri dish with PDA inoculated with fungi spores exposed to pentanal vapors", "format": "cell-based", "conditions": "pentanal vapors about 18 ppm; vs untreated plates", "from_the_text": "as §1"}, "[4]": {"system": "pathogen related decay (spoilage) of fruits (pears, strawberries and mandarins)", "assay": "decay of fruits exposed to pentanal and stored", "format": "in vivo", "conditions": "10 to 30 ppm pentanal; stored in a cold room and/or at 20° C.", "experimental": "Furthermore, various fruits (e.g. pears, strawberries and mandarins) have been exposed to between 10 and 30 ppm of pentanal (e.g. in a form of vapors, or by contacting thereof with an appropriate amount of any one of the composition of the invention). Upon exposure, the treated fruits have been stored for different time periods (in a cold room and/or at 20° C.). Subsequently, the decay of treated fruits has been examined and compared to untreated fruits."}, "Penicillium expansum [5]": {"system": "Penicillium expansum", "assay": "electron microscopy of mycelium and spores treated with pentanal", "format": "cell-based", "conditions": "pentanal treated vs untreated", "experimental": "FIGS. 2A-2C are micrographs presenting the effect of pentanal vapors (lower panel) on the mycelium (2A), conidia (2B), and spores (2C) of Penicillium expansum, as compared to untreated counterparts (upper panel). White arrows represent damage of Penicillium expansum upon exposure to pentanal vapors. Mycelium and spores of Penicillium expansum treated and untreated with pentanal were analyzed using electronic microscope. Untreated mycelium and the spores of Penicillium expansum developed normally (FIG. 2, upper panel) while the Pentanal treated samples were impaired, the round structure of the mycelium was altered and along the mycelium damaged sites were observed (FIG. 2A). The conjugation sites of the spores in conidiophore were also damaged (FIG. 2B), and ruptures were visible on the spores' surface (FIG. 2C)."}, "Botrytis cinerea [6]": {"system": "Botrytis cinerea", "assay": "rot development on inoculated pears after cold storage", "format": "in vivo", "conditions": "pentanal vapors 18 ppm; 2 months of cold storage (0° C.)", "experimental": "(§2) FIGS. 3A-3B are bar graphs representing the development of rots (in mm) on pears that were inoculated with Penicillium expansum (3A) and Botrytis cinera (3B) spores. Pears were inoculated with different concentrations of Penicillium expansum spores: 10^3 spores (A); 10^4 spores (B); 10^5 spores (C). The diameter of rots (in mm) was assessed after 2 months of cold storage (at 0° C.). The graphs represent untreated pears versus pears treated by pentanal vapors (18 ppm).\n(§3) The decay was measured after 2 months of cold storage (0° C.)."}, "Penicillium expansum [7]": {"system": "Penicillium expansum", "assay": "rot development on inoculated pears after cold storage", "format": "in vivo", "conditions": "pentanal vapors 18 ppm; 10^3-10^5 spores; 2 months of cold storage (0° C.)", "experimental": "as §2, §3"}, "[8]": {"system": "Penicillium expansum and/or Botrytis cinerea", "assay": "storage shelf-life of inoculated fruit and vegetables exposed to pentanal vapors", "format": "in vivo", "conditions": "strawberries", "from_the_text": "Furthermore, the inventors tested the storage shelf-life of various inoculated fruit and vegetables species, such as: apples, pears, strawberries, lichi, cucumbers, citrus fruits, grapes under similar storage conditions upon exposure thereof to pentanal vapors. The fruits have been inoculated with Penicillium expansum and/or Botrytis cinerea spores and exposed to pentanal vapors at a concentration ranging between 30 and 100 ppm during the cold storage. […] The exact preservative effective amount of pentanal vapors varies dependent on the specific fruit specie, for example strawberries require higher concentration of pentanal, about 80-100 ppm."}, "[9]": {"system": "Penicillium expansum spores", "assay": "effect of different volatiles on viability of spores (CFU)", "format": "cell-based", "conditions": "0.9, 1.8 or 18 μL/L", "experimental": "FIGS. 4A-4B are bar graphs representing antifungal activity of different VOCs. FIG. 4A represents the effect of Butyl acetate (B) Hexyl acetate (H), Isoamyl acetate (I), Trans-2-Hexanal (T), and Pentanal (P) and Control (C) at the concentrations of 1.8 μL/L or 18 μL/L on Penicillium expansum spores (CFU). Different letters represent significant differences between treatments (p<0.05). A-C-1.8 μL/L, a-c-18 μL/L 1.8. FIG. 4B represents the effect of different volatiles Hexyl acetate (H), Trans-2-Hexanal (T), Pentanal (P), Hexanal (He) and Control (C) at the concentrations of 0.9 μL/L, 1.8 μL/L or 18 μL/L on Penicillium expansum spores (CFU). Different letters represent significant differences between treatments (p<0.05). A-C-1.8 μL/L, a-c-18 μL/L 1.8.\nThe inventors additionally examined the effect of different volatiles on the viability of Penicillium expansum spores. The volatiles tested were: Butyl acetate, Hexyl acetate, Isoamyl acetate, […] and they were compared to Pentanal at two different concentrations (1.8 μL/L or 18 μL/L). Furthermore, the inventors examined lower concentration (0.9 μL/L) for the following VOCs hexanal, trans-hexenal, and hexyl acetate on Penicillium expansum spores (CFU)."}, "[10]": {"system": "Penicillium expansum spores", "assay": "spores incubated on PDA plates, then exposed to pentanal vapors for 24 hr", "format": "cell-based", "experimental": "The effect of incubation period (hours) of Penicillium expansum spores on PDA plates followed by exposure to pentanal vapors (1.8 ppm, or 18 ppm) for 24 hr was examined."}},
  "data": [
    {"smiles": "CCCCC=O", "note": "[Pentanal]", "values": [
      {"measurement": "Time (min) until 50% release", "setting": "[1]", "value": 5, "unit": "min"},
      {"measurement": "fungal growth in petri dish", "setting": "Alternaria alternata", "value": "completely prevented fungal growth"},
      {"measurement": "fungal growth in petri dish", "setting": "Botrytis cinerea [2]", "value": "completely prevented fungal growth"},
      {"measurement": "fungal growth in petri dish", "setting": "Penicillium expansum [3]", "value": "completely prevented fungal growth"},
      {"measurement": "decay of treated fruits compared to untreated fruits", "setting": "[4]", "value": "prevention pathogen related decay (spoilage)"},
      {"measurement": "damage to mycelium, conidiophore and spores (electron microscope)", "setting": "Penicillium expansum [5]", "value": "physical damage"},
      {"measurement": "decay development in inoculated pears", "setting": "Botrytis cinerea [6]", "value": "significantly delayed decay development"},
      {"measurement": "decay development in inoculated pears", "setting": "Penicillium expansum [7]", "value": "significantly delayed decay development"},
      {"measurement": "shelf-life of inoculated fruits and vegetables vs non-treated controls", "setting": "[8]; pentanal vapors 30 to 100 ppm during cold storage, apples, pears, lichi, cucumbers, citrus fruits, grapes", "value": "significantly prolong the shelf-life"},
      {"measurement": "preservative effective amount of pentanal vapors", "setting": "[8]", "value": "80-100 ppm"},
      {"measurement": "anti-fungal activity (CFU) compared to other VOCs", "setting": "[9]", "value": "significantly enhanced anti-fungal activity"},
      {"measurement": "fungal colonies 6 days after exposure", "setting": "[10]; pentanal vapors 1.8 ppm for 24 hr", "value": "no fungal colonies were detected"},
      {"measurement": "fungal colonies 6 days after exposure", "setting": "[10]; pentanal vapors 18 ppm for 24 hr", "value": "no fungal colonies were detected"}
    ]}
  ]
}
